Experimental findings from patent US10508077B2 (FORMA Therapeutics, Inc., priority 2015, dated 2019) are described below.

Where only a bound is given, the exact number is not on record here.

This assay concerns the target T1, Full length human recombinant HDAC8 protein (Homo sapiens, UniProt Q9BY41).
T1 construct: Full length human recombinant HDAC8 protein was expressed in baculoviral system; made in house
T1 sequence (Q9BY41 1-377): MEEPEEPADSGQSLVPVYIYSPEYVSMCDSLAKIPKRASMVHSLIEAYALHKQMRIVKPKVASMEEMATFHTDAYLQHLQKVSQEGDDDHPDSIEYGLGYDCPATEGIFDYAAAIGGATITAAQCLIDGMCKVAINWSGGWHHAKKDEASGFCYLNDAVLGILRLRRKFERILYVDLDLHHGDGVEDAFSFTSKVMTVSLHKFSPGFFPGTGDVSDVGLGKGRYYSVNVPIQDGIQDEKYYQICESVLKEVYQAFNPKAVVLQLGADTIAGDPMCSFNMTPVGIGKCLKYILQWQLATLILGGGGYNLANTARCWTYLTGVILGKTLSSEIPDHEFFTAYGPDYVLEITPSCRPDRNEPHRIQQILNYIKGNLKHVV
Kind of assay: In vitro histone deacetylase assay: enzymatic HDAC8 assay, electrophoretic mobility shift. In kind it is biochemical. The settings on record: substrate RHKK(Ac)-NH2, 1 nM enzyme, compounds listed under IC50 range headings. The protocol: The enzymatic HDAC8 assay was performed using electrophoretic mobility shift assay. Full length human recombinant HDAC8 protein was expressed in baculoviral system and purified by affinity chromatography. The enzymatic reactions were assembled in 384 well plates in a total volume of 25 μL in a reaction buffer composing: 100 mM HEPES, pH7.5, 25 mM KC, 0.1% bovine serum albumin, 0.01% Triton X-100, 1% DMSO (from compounds) 2 μM of the fluorescently labeled peptide substrate and enzyme. The enzyme was added at a final concentration of 1 nM. The peptide substrate RHKK(Ac)-NH2 was used. The compounds were tested at 12 concentrations spaced by 3× dilution intervals. Negative control samples (0%-inhibition in the absence of inhibitor) and positive control samples (100%-inhibition) were assembled in replicates of four in each assay plate. The reactions were incubated at 25° C. and quenched by the addition of 45 μL of termination buffer (100 mM HEPES, pH 7.5, 0.01% Triton X-100, 0.05% SDS).
The terminated assay plates were analyzed on LabChip® 3000 microfluidic electrophoresis instrument (Perkin Elmer/Caliper Life Sciences). The fluorescence intensity of the electrophoretically separated de-acetylated product and substrate peptide was measured. Activity in each sample was determined as the product to sum ratio (PSR): P/(S+P), where P is the peak height of the product peptide and S is the peak height of the substrate peptide. Percent inhibition (Pinh) is determined using the following equation: Pinh=(PSR0%−PSRinh)/(PSR0%−PSR100%)*100, where PSRinh is the product sum ratio in the presence of inhibitor, PSR0% is the average product sum ration in the absence of inhibitor and PSR 100% is the average product sum ratio in 100%-inhibition control samples. The IC50 values of inhibitors were determined by fitting the %-inhibition curves with 4 parameter dose-response model using XLfit 4 software. Ranges of IC50 values for compounds of the invention are disclosed in Table 26.

For the molecule `O=C(/C=C/c1ccccc1NCc1ccc(-c2ccccc2)nc1)NO` [Example I-99, (E)-N-hydroxy-3-(2-(((6-phenylpyridin-3-yl)methyl)amino)phenyl)acrylamide], the concentration for half-maximal inhibition (IC50) is less than 1000 nM. For `O=C(/C=C/c1ccccc1NCc1cc2cccnc2[nH]1)NO` [Example I-102, (E)-3-(2-(((1H-pyrrolo[2,3-b]pyridin-2-yl)methyl)amino)phenyl)-N-hydroxyacrylamide] the value was less than 1000 nM; for `CC(C)Nc1ncc(CNc2ccccc2/C=C/C(=O)NO)cn1` [Example I-105, (E)-N-hydroxy-3-(2-(((2-(isopropylamino)pyrimidin-5-yl)methyl)amino)phenyl)acrylamide], less than 1000 nM; for `O=C(/C=C/c1ccccc1NCC1CCOC1)NO` (centres unmarked) [Example I-106, (E)-N-hydroxy-3-(2-(((tetrahydrofuran-3-yl)methyl)amino)phenyl)acrylamide], less than 1000 nM.

In the case of `NC(=O)C1CCC2(CC1)CCN(c1ccccc1/C=C/C(=O)NO)CC2` [Example I-108, (E)-3-(2-(3-(hydroxyamino)-3-oxoprop-1-en-1-yl)phenyl)-3-azaspiro[5.5]undecane-9-carboxamide], the IC50 was less than 1000 nM.

`CC(C)(C)OC(=O)N1CCCC2(CCN(c3ccccc3/C=C/C(=O)NO)CC2)C1` [Example I-109, tert-butyl (E)-9-(2-(3-(hydroxyamino)-3-oxoprop-1-en-1-yl)phenyl)-2,9-diazaspiro[5.5]undecane-2-carboxylate]: the IC50 is less than 1000 nM.

On to `O=C(/C=C/c1ccccc1N1CCC2(CCCNC2)CC1)NO` [Example I-110, (E)-3-(2-(2,9-diazaspiro[5.5]undecan-9-yl)phenyl)-N-hydroxyacrylamide 2,2,2-trifluoroacetate], for which the IC50 is less than 1000 nM.

Consider `CC(C)(C)OC(=O)N1CCC2(CC1)CCN(c1ccccc1/C=C/C(=O)NO)C2` [Example I-111, tert-butyl (E)-2-(2-(3-(hydroxyamino)-3-oxoprop-1-en-1-yl)phenyl)-2,8-diazaspiro[4.5]decane-8-carboxylic], for which the IC50 is less than 1000 nM. Take `CC(C)(C)OC(=O)N1CCC2(CCN(c3ccccc3/C=C/C(=O)NO)C2)C1` (centres unmarked) [Example I-112, tert-butyl (E)-7-(2-(3-(hydroxyamino)-3-oxoprop-1-en-1-yl)phenyl)-2,7-dizazspiro[4.4]nonane-2-carboxylate]: the concentration for half-maximal inhibition (IC50) was less than 1000 nM. For the molecule `O=C(/C=C/c1ccccc1N1CC2(CC(NC(=O)OCc3ccccc3)CS2(=O)=O)C1)NO` (centres unmarked) [Example I-114, benzyl (E)-(2-(2-(3-(hydroxyamino)-3-oxoprop-1-en-1-yl)phenyl)-5,5-dioxido-5-thia-2-azaspiro[3,4]octan-7-yl)carbamate], the IC50 is less than 1000 nM. Turning to `O=C(/C=C/c1ccccc1NCc1nc2ccc(CCCO)cc2[nH]1)NO` [Example I-116, (E)-N-hydroxy-3-(2-(((6-(3-hydroxypropyl)-1H-benzo[d]imidazol-2-yl)methyl)amino)phenyl)acrylamide], the IC50 was less than 1000 nM. `NC1CC2(CN(c3ccccc3/C=C/C(=O)NO)C2)S(=O)(=O)C1` (centres unmarked) [Example I-117, (E)-3-(2-(7-amino-5,5-dioxido-5-thia-2-azaspiro[3.4]octan-2-yl)phenyl)-N-hydroxyacrylamide 2,2,2-trifluoroacetate]: the IC50 was less than 1000 nM. For `CC(C)N(C(=O)c1cccc(C(F)(F)F)c1)c1ccccc1/C=C/C(=O)NO` [Example I-118, (E)-N-(2-(3-(hydroxyamino)-3-oxoprop-1-en-1-yl)phenyl)-N-isopropyl-3-(trifluoromethyl)benzamide] the value was less than 1000 nM; for `CN(Cc1cccc(C(F)(F)F)c1)c1ccccc1/C=C/C(=O)NO` [Example I-119, (E)-N-hydroxy-3-(2-(methyl(3-(trifluoromethyl)benzyl)amino)phenyl)acrylamide], less than 1000 nM. The same measure for `O=C(/C=C/c1ccccc1NCc1ccc(-c2ccccc2)c(C(F)(F)F)c1)NO` [Example I-120, (E)-N-hydroxy-3-(2-(((2-(trifluoromethyl)-[1,1′-biphenyl]-4-yl)methyl)amino)phenyl)acrylamide]: less than 1000 nM; for `Cn1c(CNc2ccccc2/C=C/C(=O)NO)nc(Cl)c1Cl` [Example I-121, (E)-3-(2-(((4,5-dichloro-1-methyl-1H-imidazol-2-yl)methyl)amino)phenyl)-N-hyroxyacrylamide]: less than 1000 nM.

For `O=C(/C=C/c1cccnc1NC(=O)c1cccc(C(F)(F)F)c1)NO` [Example I-122], the IC50 is less than 1000 nM. For `O=C(/C=C/c1ncccc1NC(=O)c1cccc(C(F)(F)F)c1)NO` [Example I-124, (E)-N-(2-(3-(hydroxyamino)-3-oxoprop-1-en-1-yl)pyridin-3-yl)-3-(trifluoromethyl)benzamide] the value was less than 1000 nM; for `CCCCC(=O)NC1CCN(c2ccccc2/C=C/C(=O)NO)CC1` [Example I-125, (E)-N-(1-(2-(3-(hydroxyamino)-3-oxoprop-1-en-1-yl)phenyl)piperidin-4-yl)pentanamide], less than 1000 nM; for `O=C(/C=C/c1ccccc1N1CCC(NC(=O)C2CCCCC2)CC1)NO` [Example I-126, (E)-N-(1-(2-(3-(hydroxyamino)-3-oxoprop-1-en-1-yl)phenyl)piperidin-4-yl)cyclohexanecarboxamide], less than 1000 nM. For `CS(=O)(=O)N1CCCC(C(=O)NC2CCN(c3ccccc3/C=C/C(=O)NO)CC2)C1` (centres unmarked) [Example I-127] the value was less than 1000 nM; for `O=C(/C=C/c1ccccc1N1CCC(NC(=O)Cc2cccs2)CC1)NO` [Example I-128, (E)-N-hydroxy-3-(2-(4-(2-(thiophen-2-yl)acetamido)piperidin-1-yl)phenyl)acrylamide], less than 1000 nM; for `O=C(/C=C/c1ccccc1N1CCC(NC(=O)CSc2ccc(F)cc2)CC1)NO` [Example I-129, (E)-3-(2-(4-(2-((4-fluorophenyl)thio)acet-amido)piperidin-1-yl)phenyl)-N-hydroxyacrylamide], less than 1000 nM. The same measure for `O=C(/C=C/c1ccccc1N1CCC(NC(=O)CCC(F)(F)F)CC1)NO` [Example I-130, (E)-4,4,4-trifluoro-N-(1-(2-(3-(hydroxyamino)-3-oxoprop-1-en-1-yl)phenyl)piperidin-4-yl)butanamide]: less than 1000 nM; for `CCSCC(=O)NC1CCN(c2ccccc2/C=C/C(=O)NO)CC1` [Example I-131]: less than 1000 nM; for `O=C(/C=C/c1ccccc1N1CCC(NC(=O)c2cccnc2)CC1)NO` [Example I-132]: less than 1000 nM. On to `CNc1ccc(C(=O)NC2CCN(c3ccccc3/C=C/C(=O)NO)CC2)cc1` [Example I-133, (E)-N-(1-(2-(3-(hydroxyamino)-3-oxoprop-1-en-1-yl)phenyl)piperidin-4-yl)-4-(methylamino)benzamide], for which the IC50 is less than 1000 nM. For `CS(=O)(=O)N1CCC(CC(=O)NC2CCN(c3ccccc3/C=C/C(=O)NO)CC2)CC1` [Example I-135, (E)-N-hydroxy-3-(2-(4-(2-(1-(methylsulfonyl)piperidin-4-yl)acetamido)piperidin-1-yl)phenyl)acrylamide] the value was less than 1000 nM; for `CS(=O)(=O)CCCC(=O)NC1CCN(c2ccccc2/C=C/C(=O)NO)CC1` [Example I-136, (E)-N-(1-(2-(3-(hydroxyamino)-3-oxoprop-1-en-1-yl)phenyl)piperidin-4-yl)-4-(methylsulfonyl)butan-amide], less than 1000 nM.
